Data set [1] relates to human whole blood under hyperfibrinolytic state induced by rtPA. As to the kind of experiment: Human whole blood thromboelastography (TEG) assay. It is filed as biochemical. As for the experimental part:
The antifibrinolytic effect of the compounds of the invention in the human whole blood under hyperfibrinolytic state induced by rtPA (recombinant tissue […]) was determined using the Thromboelastogram (TEG).
• Source of human blood: All human blood used in the experiments was provided by healthy volunteers. 3. Experimental Procedure • (1) Preparation of test substance solution: Accurately weigh the test substance, and use normal saline to prepare the test substance to the following concentrations (100×test concentration): • Tranexamic acid (μM): 3000, 1000, 300, 100, 30, 10, 0; • Example 6 (μM): 1000, 300, 100, 30, 10, 3, 0. • (2) Preparation of rt-PA (alteplase for injection): the active dry powder of rtPA was formulated to 25 μg/mL using water for injection in the rtPA package. • (3) Reaction system:
Mix 392 μL of sodium citrate anticoagulated whole blood with 4 μL rtPA and 4 μL test substance, reacted at room temperature, and TEG curve was detected for 2 hours to obtain the time parameter of CLT (clot lysis time). • (4) Result calculations
Taking the log value of the compound concentration as the X-axis and the CLT value as the Y-axis, and dose-response curves were fitted using log (inhibitor) vs. Response-Variable slope (GraphPad Prism 8 software).
The concentration of compound corresponding to doubling the CLT time was calculated.

A further data set deals with fibrinolysis. Particulars: relative to EACA; cited from earlier work.
The test system of data set [2] is plasma clots (human plasma, tPA-induced lysis). In words: Plasma clot lysis assay. It is filed as biochemical. The following applies: human plasma, tPA, clot lysis time by absorbance at 405 nm; read-out: IC50 value for inhibition of plasma clot lysis. The source says: To determine the inhibitory effect of the compounds of the invention on the degradation of plasma clots.
3. […] The time corresponding to the median of the absorption value in the descending section-the time corresponding to the median of the absorption value in the ascending section is the plasma clot degradation time (Clot lysis time).
Taking the log value of the compound concentration as the X-axis, and the percentage inhibition rate as the Y-axis, and dose-response curves were fitted with the software GraphPad Prism 5 by using log (inhibitor) vs. Response-Variable slope to derive IC50 values of compounds inhibiting the degradation of plasma clots. Y=min+(max−min)/(1+10^((LogIC50−X)×Hillslope). Formula: […]

Data set [3] in a line: Rat PK assay, intravenous administration. Type of data set: in vivo. The following applies: male, Sprague-Dawley, plasma, SD rats, 1 mg/kg single dose. On the procedure: The pharmacokinetic profile of the compounds of the invention in rats was studied by measuring the plasma drug concentration after intravenous administration.
Male Sprague-Dawley rats of SPF grade, 3 rats each group, were obtained from: Shanghai Sippe-Bk Lab Animal Co., Ltd.
The compound was weighed and dissolved in normal saline to prepare a 0.2 mg/mL solution for intravenous administration.
The day before the experiment, the rats were fasted overnight and fed 4 hours after administration.
On the day of the experiment, the rats were administered according to the scheme in the table below. At each time point after administration, approximately 200 μL of blood was collected from the jugular vein and placed in heparin sodium anticoagulation tubes. Blood samples were placed on ice after collection, and the plasma was separated by centrifugation within 1 hour (centrifugation conditions: 6800 g, 6 minutes, 2-8° C.). The separated plasma was stored in a refrigerator at −80° C. for biological sample analysis.
The compound concentration in rat plasma was determined by the following method: • Instruments and equipment: LC-MS/MS-19 (TQ5500, AB SCIEX, USA). • Internal standard: warfarin. • Chromatographic column: ACQUITY UPLC BEH C18, model 1.7 um 2.1*50 mm, purchased from Shenzhen Novah Chemical Technology Co., Ltd.; • Flow rate: 0.60 ml/min. • Column temperature: 40° C. • Mobile phase A: 0.1% formic acid in water. • Mobile phase B: 0.1% formic acid in acetonitrile.
Take 30 μL of the plasma sample prepared from item “3”, add 300 μL MeOH containing 100 ng/ml of internal standard to precipitate protein. The mixture was vortexed for 1 minute and centrifuged at 18000 g for 7 minutes. The supernatant was transferred to a 96-well plate. Inject 4 μL of supernatant into LC-MS/MS for analysis.
The concentration of the compound in rat plasma was determined by the above-mentioned LC-MS/MS analysis method, and pharmacokinetic parameters were calculated by using Phoenix WinNonlin7.0 software according to blood concentration data of different time points.

The text below walks through data of patent US12649755B2, “Plasmin inhibitor, preparation method therefor and application thereof” (SCINNOHUB PHARMACEUTICAL CO., LTD, priority 2020, dated 2026).

One may read the IC50 as the concentration needed to halve the response being measured. By AUC is commonly meant the area under the concentration-time curve, a measure of exposure. For orientation: Cmax means the peak of the concentration-time curve. As a reminder, the clearance is the volume of plasma or blood freed of the substance per unit of time. As usually defined, the half-life is the time in which the quantity being followed falls by half.

In the case of `NC[C@H]1CC[C@H](C(=O)O)CC1` [Tranexamic acid, trans-4-aminomethyl-cyclohexane-carboxylic acid, reference compound], the “Compound concentration for doubling CLT” value in data set [1] came out at 1.78 µM. In addition, the CLT doubling in data set [1] (clot lysis time at the doubling concentration) came to 34.66 min. In the data set on fibrinolysis, the “anti-fibrinolytic activity, times that of EACA” value is “about 10 times”. Besides, in data set [2], the IC50 is 4.75 µM. In data set [3], this molecule had an AUC of 2820 ng·h/mL, a Cmax of 4410 ng/mL, a clearance of 5.78 mL/min/kg and a half-life of 1.28 h.
